From ChEMBL document CHEMBL1201862, “PubChem BioAssay data set” (2004)
Active and inactive are the calls of the source.

Tests used:
[1] = molecular target: T1, Corticotropin-releasing factor receptor 2/Corticotropin-releasing factor-binding protein (Homo sapiens, UniProt P24387+Q13324); experiment: activators of CRF receptor 2 with binding protein – uHTS hits, confirmation (AID 602473); format: functional; details: read-out: EC50_Mean
T1 sequence (Q13324 whole entry): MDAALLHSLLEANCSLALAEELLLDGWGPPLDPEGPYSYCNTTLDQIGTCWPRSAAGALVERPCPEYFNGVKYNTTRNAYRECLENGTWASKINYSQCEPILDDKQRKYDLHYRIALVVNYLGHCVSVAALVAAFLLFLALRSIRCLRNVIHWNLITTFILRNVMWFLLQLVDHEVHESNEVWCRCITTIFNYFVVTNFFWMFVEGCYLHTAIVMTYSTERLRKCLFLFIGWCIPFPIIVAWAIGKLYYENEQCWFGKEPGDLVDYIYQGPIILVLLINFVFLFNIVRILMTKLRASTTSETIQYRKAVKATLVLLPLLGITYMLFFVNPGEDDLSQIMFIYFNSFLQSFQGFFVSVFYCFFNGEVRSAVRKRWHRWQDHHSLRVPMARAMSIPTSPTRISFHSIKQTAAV
T1 sequence (P24387 whole entry): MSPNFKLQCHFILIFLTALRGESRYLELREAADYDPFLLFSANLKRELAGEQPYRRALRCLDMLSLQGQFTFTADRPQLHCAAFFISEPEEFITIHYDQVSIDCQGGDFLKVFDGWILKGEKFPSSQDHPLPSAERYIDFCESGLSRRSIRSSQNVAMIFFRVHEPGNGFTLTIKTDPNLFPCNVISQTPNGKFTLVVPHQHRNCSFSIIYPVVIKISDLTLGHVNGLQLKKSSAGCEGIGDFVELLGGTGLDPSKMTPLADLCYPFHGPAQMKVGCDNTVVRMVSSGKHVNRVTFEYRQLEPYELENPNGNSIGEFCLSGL

[2] = molecular target: Voltage-dependent T-type calcium channel subunit alpha-1H (Homo sapiens, UniProt O95180); format: functional;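 further: channel activity triggered by adding a high calcium stimulation buffer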
Chain of Voltage-dependent T-type calcium channel subunit alpha-1H (O95180 whole entry): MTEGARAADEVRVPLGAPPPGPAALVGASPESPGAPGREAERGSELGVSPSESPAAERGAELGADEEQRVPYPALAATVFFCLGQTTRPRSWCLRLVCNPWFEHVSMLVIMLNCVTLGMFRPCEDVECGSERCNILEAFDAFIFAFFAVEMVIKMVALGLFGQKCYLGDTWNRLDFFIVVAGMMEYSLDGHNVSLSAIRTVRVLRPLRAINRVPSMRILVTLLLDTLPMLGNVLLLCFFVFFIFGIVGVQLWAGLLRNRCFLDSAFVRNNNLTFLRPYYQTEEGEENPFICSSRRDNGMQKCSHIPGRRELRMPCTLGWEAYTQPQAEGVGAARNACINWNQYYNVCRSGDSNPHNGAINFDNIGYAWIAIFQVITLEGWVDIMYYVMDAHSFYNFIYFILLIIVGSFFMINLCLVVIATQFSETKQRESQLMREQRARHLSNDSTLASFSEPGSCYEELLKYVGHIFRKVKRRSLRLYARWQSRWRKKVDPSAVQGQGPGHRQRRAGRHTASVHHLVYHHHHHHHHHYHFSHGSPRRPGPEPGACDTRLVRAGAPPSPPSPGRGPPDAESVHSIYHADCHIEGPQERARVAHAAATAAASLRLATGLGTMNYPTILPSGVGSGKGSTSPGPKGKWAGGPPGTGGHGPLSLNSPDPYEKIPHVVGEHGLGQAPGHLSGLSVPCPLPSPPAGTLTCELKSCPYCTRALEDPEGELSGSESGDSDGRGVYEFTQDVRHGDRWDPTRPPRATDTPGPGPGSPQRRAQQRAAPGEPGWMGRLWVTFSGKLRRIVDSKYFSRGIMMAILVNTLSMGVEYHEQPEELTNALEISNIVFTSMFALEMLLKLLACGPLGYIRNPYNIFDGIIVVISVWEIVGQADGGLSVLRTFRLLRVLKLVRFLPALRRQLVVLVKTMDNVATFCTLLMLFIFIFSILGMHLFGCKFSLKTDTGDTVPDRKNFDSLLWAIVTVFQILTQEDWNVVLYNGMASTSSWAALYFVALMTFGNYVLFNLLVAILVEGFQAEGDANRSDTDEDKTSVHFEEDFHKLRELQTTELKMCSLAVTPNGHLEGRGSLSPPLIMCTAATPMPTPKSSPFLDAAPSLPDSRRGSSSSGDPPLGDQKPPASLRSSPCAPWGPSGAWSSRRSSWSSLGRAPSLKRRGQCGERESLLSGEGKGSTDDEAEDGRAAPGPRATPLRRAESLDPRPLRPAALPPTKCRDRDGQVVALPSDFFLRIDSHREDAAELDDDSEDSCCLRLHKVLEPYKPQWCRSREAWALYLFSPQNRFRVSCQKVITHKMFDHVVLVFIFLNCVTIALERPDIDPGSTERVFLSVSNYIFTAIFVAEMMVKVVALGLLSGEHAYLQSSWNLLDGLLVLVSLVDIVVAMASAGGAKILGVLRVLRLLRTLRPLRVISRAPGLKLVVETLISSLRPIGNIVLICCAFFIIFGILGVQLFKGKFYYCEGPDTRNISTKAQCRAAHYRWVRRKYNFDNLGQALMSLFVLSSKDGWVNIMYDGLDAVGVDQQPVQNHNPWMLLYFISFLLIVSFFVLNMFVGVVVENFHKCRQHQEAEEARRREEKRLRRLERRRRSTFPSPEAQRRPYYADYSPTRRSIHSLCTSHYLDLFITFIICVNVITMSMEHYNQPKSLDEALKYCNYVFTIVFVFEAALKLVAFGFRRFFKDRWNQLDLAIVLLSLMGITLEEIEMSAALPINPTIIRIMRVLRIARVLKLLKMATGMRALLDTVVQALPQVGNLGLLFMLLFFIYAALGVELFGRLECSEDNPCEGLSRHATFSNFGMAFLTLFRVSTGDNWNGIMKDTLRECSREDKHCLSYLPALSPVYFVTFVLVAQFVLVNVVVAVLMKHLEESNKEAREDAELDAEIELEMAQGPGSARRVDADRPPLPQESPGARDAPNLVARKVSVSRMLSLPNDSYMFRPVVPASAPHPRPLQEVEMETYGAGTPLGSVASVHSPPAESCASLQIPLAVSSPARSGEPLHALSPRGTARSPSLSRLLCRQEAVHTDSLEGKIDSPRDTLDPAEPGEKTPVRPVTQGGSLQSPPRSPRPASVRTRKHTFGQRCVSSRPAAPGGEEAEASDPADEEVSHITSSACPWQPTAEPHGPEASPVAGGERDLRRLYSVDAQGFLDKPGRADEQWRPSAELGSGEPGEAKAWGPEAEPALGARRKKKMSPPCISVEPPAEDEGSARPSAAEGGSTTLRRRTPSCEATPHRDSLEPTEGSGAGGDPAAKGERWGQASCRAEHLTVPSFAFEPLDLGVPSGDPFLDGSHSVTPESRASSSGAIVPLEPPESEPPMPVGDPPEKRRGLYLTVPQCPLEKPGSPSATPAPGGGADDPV

[3] = molecular target: T1, Corticotropin-releasing factor receptor 2/Corticotropin-releasing factor-binding protein; experiment: Dose Response confirmation of uHTS hits for small molecule antagonists of the CRF-binding protein and CRF-R2 receptor complex.; format: functional; details: read-out: IC50_Mean
[4] = microbe, parasite or virus in culture; format: functional; details: Mycobacterium tuberculosis
Estrogen receptor = molecular target: T2, Estrogen receptor (Homo sapiens, UniProt P03372);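 further: potency for inhibiting coactivator peptide recruitment to the receptor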
T2 sequence (P03372 whole entry): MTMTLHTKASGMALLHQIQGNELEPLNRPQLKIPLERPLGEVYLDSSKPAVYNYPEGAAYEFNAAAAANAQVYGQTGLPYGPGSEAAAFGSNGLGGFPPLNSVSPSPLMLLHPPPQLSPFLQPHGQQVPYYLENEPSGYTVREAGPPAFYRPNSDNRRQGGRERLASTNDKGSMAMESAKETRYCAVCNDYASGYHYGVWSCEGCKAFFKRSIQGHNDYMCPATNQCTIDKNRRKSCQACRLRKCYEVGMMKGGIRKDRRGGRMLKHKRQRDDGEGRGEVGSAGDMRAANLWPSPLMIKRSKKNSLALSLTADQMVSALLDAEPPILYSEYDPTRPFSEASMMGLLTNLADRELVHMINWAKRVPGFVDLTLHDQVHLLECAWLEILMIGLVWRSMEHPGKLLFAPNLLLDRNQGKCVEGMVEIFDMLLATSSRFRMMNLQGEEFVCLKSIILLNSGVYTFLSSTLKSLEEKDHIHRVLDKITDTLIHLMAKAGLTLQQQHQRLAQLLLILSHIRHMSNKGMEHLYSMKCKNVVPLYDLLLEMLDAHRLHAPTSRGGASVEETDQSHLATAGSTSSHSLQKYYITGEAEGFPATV

[5] = molecular target: Glyceraldehyde-3-phosphate dehydrogenase (Homo sapiens, UniProt P04406)
Chain of Glyceraldehyde-3-phosphate dehydrogenase (P04406 whole entry): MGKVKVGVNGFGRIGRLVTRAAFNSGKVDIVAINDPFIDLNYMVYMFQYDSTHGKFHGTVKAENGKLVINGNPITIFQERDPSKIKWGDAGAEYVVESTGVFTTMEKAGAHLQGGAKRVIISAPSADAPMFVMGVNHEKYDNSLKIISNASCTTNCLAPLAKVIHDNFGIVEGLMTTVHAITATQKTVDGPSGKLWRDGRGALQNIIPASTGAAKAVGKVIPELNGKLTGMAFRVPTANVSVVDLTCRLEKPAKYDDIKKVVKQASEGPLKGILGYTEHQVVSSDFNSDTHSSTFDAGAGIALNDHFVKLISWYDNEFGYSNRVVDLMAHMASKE

Aminopeptidase N = molecular target: T3, Aminopeptidase N (Plasmodium falciparum FcB1/Columbia, UniProt O96935); experiment: P. falciparum M1AAP inhibitors, biochemical, fluorogenic H-Leu-NHMec substrate, 1536-well (AID 1445); set-up: species or system Plasmodium falciparum 3D7, 3D7
T3 sequence (O96935 whole entry): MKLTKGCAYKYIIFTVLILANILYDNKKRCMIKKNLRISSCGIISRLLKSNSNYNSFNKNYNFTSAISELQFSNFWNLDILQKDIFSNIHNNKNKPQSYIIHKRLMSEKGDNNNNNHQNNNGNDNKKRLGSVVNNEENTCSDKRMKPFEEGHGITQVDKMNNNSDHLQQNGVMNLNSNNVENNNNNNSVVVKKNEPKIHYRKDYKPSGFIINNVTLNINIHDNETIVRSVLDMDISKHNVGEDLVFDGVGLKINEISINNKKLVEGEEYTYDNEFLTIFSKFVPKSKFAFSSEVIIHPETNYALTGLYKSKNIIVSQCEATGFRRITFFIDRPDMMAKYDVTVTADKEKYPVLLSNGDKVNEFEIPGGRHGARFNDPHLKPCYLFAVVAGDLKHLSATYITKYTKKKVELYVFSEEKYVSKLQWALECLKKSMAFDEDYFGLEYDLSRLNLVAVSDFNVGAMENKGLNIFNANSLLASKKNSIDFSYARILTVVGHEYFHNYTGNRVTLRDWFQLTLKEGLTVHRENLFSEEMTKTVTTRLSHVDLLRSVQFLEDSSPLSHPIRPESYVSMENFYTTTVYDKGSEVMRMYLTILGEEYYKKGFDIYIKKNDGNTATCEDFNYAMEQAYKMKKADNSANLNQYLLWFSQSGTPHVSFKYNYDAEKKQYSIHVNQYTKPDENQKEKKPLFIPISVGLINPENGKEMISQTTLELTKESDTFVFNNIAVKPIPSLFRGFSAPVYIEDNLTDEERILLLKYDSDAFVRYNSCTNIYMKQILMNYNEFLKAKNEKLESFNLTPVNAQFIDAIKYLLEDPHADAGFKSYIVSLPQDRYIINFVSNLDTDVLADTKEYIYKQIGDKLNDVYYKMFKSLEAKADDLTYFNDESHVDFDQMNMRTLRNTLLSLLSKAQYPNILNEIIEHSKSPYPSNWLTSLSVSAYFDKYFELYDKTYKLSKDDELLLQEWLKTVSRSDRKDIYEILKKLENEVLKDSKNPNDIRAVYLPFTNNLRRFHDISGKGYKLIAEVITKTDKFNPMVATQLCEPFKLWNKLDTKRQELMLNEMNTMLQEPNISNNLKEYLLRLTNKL

Coagulation factor XII = molecular target: T4, Coagulation factor XII (Homo sapiens, UniProt P00748); format: functional;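 further: activated factor XIIa alpha cleaving a fluorogenic AMC peptide substrate; inhibitor potency from loss of enzyme activity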
T4 sequence (P00748 whole entry): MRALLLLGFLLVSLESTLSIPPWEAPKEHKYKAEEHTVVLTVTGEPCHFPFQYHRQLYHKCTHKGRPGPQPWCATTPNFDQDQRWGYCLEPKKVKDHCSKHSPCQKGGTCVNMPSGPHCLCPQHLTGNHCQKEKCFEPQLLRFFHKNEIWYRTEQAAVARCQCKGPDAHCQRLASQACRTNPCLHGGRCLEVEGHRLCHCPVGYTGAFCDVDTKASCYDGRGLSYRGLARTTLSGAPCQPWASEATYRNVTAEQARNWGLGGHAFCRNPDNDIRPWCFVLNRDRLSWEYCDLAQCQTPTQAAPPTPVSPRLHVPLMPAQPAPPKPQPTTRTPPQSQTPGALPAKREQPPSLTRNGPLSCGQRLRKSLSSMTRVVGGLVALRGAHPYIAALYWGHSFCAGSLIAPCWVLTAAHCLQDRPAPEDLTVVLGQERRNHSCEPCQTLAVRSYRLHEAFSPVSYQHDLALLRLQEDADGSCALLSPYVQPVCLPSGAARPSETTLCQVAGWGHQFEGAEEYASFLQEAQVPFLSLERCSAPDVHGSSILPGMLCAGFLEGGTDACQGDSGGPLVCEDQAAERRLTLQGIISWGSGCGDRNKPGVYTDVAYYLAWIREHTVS

[6] = A cytotoxicity screen of small molecule inhibitors of the PhoP region in Salmonella typhi identified in the primary screen. [Related pubchem assays: 1850, 1864, 1985 ]; format: functional
Cytochrome P450 2C19 = Cytochrome P450 2C19 (Homo sapiens, UniProt P33261); experiment: Cytochrome panel assay with activity outcomes. Panel member name: p450-cyp2c19 Compounds with AC50 equal or less than 10 uM are considered active; format: functional; details: read-out: AC50
Chain of Cytochrome P450 2C19 (P33261 whole entry): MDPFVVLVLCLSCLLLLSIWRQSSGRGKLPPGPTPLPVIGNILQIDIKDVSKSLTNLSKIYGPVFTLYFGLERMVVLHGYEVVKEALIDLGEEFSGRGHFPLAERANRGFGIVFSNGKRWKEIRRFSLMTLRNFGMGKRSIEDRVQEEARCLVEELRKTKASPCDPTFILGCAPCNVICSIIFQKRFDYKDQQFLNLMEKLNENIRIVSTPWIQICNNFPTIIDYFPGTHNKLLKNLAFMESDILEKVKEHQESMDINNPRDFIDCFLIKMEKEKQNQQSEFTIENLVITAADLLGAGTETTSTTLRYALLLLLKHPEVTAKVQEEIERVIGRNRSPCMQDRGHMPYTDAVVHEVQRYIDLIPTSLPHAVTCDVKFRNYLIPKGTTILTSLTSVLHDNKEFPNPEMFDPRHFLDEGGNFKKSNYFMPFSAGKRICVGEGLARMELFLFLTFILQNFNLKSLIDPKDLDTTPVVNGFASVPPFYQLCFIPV

Structure (SMILES): CC(C)(C)n1nnnc1C(c1ccc(Cl)cc1)N(Cc1cccnc1)Cc1ccco1 (stereo not given)
- EC50 [1]: > 53 µM (inactive)
- EC50 [2]: 3.31 µM (active)
- IC50 [3]: > 47.1 µM (inactive)

Structure (SMILES): Cc1cc2nc(C3CCN(CC4COc5ccccc5O4)CC3)[nH]c2cc1C (stereo not given)
- EC50 [2]: 4.9 µM (active)
- CC50 [4]: 30.9 µM (active)

Structure (SMILES): CC(=O)Nc1ccc2nc(C)cc(O)c2c1
- IC50 (Estrogen receptor): 21 µM (active)

Structure (SMILES): CC1(C)OC(=O)C(=Cc2ccc(I)o2)C(=O)O1
- IC50 [5]: > 100 µM (not active)

Structure (SMILES): CCNS(=O)(=O)c1ccc(CCC(=O)NCc2ccc(C)cc2)cc1
- IC50 (Aminopeptidase N): 21.8 µM (active)

Structure (SMILES): COc1cc(/C=N/NC(=O)c2cccnc2)ccc1OCC(=O)Nc1ccc(C)cc1
- IC50 (Aminopeptidase N): 47.8 µM (active)

Structure (SMILES): COc1cc(OC)cc(C(=O)N2CCN(Cc3ccccc3C(F)(F)F)CC2)c1
- IC50 (Coagulation factor XII): > 50 µM (inactive)

Structure (SMILES): Cc1cc(C)c([C@@H]2C[C@H]3CN(C4CCCC4)C(=O)[C@]34CCCN24)c(-n2cccn2)c1
- EC50 [6]: > 50 µM (active)

Structure (SMILES): Cc1cccc(NC(=O)c2cc(N3C(=O)CCC3=O)ccc2Cl)n1
- AC50 (Cytochrome P450 2C19): 28.2 µM (inconclusive)
- IC50 (Coagulation factor XII): > 50 µM (inactive)

Structure (SMILES): CCC(C)(C)NC(=O)COc1ccc(C(=O)c2ccccc2)cc1
- EC50 [6]: > 50 µM (active)

Structure (SMILES): NCCc1c(C(=O)O)[nH]c2ccc(S(N)(=O)=O)cc12
- IC50 [5]: > 100 µM (not active)
